Calls of active or inactive are those of the source.
How the values were obtained:
cells = assay type: functional
[1] = Luminescence Cell-Based Dose Confirmation HTS to Identify Activators of 5'UTR Stem-Loop Driven Alpha-Synuclein mRNA Translation in H4 Neuroglioblastoma Cells. [Related pubchem assays: 1829 (Project Summary), 1814 (Primary HTS)]; assay type: functional
[2] = Luminescence Cell-Based Dose Response HTS to Identify Activators of Luciferase Translation or Activity in H4 […] Cells. [Related pubchem assays: 1829 (Project Summary), 1814 (Primary HTS)]; assay type: functional
H4 = experiment: Luminescence Cell-Based Dose Response HTS to Identify Activators of 5'UTR Stem-Loop Driven Prion Protein mRNA Translation in H4 Neuroglioblastoma Cells. [Related pubchem assays: 1829 (Project Summary), 1814 (Primary HTS)]; assay type: functional; conditions: Homo sapiens
[3] = target: FAD-linked sulfhydryl oxidase ALR (Homo sapiens, UniProt P55789); experiment: ALR-catalysed DTT oxidation blockers – biochemical, H2O2 detection, luminescence, cherry-pick, dose response (AID 493248)
FAD-linked sulfhydryl oxidase ALR, sequence (P55789 whole entry): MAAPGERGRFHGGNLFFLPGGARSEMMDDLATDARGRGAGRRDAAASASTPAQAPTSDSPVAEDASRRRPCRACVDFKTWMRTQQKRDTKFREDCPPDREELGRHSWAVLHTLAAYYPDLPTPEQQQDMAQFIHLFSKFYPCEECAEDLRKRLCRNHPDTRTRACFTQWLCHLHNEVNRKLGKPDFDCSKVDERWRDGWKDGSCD

[4] = target: T1, Rac GTPase-activating protein 1 (Homo sapiens, UniProt Q9H0H5); experiment: blockers of MgcRacGAP-driven Rac1 GTP hydrolysis – biochemical, ADP Hunter fluorescence, primary and confirmatory, confirmation (AID 624330); assay type: functional
T1 sequence (Q9H0H5 whole entry): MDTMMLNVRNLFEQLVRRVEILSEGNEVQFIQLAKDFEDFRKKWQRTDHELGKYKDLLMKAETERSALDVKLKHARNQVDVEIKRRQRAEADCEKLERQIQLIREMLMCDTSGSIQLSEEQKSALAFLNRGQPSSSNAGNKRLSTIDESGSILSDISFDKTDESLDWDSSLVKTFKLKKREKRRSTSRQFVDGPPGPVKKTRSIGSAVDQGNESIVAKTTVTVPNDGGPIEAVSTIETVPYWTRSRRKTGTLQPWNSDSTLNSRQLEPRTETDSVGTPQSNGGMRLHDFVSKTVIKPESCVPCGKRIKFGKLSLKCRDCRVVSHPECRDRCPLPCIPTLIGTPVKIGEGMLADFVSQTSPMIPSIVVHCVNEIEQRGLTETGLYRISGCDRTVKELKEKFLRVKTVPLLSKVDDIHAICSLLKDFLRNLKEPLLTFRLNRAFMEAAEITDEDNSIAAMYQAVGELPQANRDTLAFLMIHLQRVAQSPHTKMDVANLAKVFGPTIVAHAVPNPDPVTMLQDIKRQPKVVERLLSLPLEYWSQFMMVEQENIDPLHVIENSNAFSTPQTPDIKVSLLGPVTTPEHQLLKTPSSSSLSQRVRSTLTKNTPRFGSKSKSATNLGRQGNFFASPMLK

[5] = target: Induced myeloid leukemia cell differentiation protein Mcl-1 (Homo sapiens, UniProt Q07820); assay type: functional
Induced myeloid leukemia cell differentiation protein Mcl-1, sequence (Q07820 whole entry): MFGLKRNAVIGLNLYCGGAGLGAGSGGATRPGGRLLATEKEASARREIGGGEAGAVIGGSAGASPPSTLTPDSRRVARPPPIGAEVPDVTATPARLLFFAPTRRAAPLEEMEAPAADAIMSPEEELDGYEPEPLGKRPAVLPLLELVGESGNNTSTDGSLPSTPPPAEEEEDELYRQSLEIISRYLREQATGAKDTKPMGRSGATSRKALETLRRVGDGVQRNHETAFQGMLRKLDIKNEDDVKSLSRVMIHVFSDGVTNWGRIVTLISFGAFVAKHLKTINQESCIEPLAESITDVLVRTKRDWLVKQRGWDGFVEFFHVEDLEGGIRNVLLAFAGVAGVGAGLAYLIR

[6] = target: T2, Heat shock factor protein 1 (Mus musculus, UniProt P38532); experiment: enhancement of HSF1-driven luciferase signal – cell-based, NIH3T3, luminescence, dose retest, confirmation (AID 435004); assay type: functional;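 note: stress induced by proteasome inhibitor MG132 added 30 min after compound; luciferase reporter driven by HSF1 response element in NIH3T3 cells; actives raise luminescence as potentiators of the MG132 stress response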
T2 sequence (P38532 whole entry): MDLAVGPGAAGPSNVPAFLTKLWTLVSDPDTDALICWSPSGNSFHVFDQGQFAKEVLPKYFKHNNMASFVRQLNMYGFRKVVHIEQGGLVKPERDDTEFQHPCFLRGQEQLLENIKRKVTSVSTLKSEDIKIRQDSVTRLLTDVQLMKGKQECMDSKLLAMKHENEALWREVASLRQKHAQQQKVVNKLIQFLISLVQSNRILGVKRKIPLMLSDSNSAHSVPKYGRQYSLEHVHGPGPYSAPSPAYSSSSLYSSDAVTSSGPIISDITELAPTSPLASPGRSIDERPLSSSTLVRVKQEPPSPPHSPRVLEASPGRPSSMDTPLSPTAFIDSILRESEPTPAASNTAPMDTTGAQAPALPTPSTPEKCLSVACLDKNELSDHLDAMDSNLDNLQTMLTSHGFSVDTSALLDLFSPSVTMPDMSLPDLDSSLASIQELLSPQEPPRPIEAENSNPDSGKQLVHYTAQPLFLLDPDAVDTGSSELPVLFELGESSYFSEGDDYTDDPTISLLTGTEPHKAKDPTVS

[7] = target: T3, Replicative DNA helicase DnaB (Mycobacterium tuberculosis, UniProt P9WMR3); experiment: DnaB intein splicing inhibitors, dose response, biochemical, cell-free fluorescence (AID 449749); assay type: functional
T3 sequence (P9WMR3 whole entry): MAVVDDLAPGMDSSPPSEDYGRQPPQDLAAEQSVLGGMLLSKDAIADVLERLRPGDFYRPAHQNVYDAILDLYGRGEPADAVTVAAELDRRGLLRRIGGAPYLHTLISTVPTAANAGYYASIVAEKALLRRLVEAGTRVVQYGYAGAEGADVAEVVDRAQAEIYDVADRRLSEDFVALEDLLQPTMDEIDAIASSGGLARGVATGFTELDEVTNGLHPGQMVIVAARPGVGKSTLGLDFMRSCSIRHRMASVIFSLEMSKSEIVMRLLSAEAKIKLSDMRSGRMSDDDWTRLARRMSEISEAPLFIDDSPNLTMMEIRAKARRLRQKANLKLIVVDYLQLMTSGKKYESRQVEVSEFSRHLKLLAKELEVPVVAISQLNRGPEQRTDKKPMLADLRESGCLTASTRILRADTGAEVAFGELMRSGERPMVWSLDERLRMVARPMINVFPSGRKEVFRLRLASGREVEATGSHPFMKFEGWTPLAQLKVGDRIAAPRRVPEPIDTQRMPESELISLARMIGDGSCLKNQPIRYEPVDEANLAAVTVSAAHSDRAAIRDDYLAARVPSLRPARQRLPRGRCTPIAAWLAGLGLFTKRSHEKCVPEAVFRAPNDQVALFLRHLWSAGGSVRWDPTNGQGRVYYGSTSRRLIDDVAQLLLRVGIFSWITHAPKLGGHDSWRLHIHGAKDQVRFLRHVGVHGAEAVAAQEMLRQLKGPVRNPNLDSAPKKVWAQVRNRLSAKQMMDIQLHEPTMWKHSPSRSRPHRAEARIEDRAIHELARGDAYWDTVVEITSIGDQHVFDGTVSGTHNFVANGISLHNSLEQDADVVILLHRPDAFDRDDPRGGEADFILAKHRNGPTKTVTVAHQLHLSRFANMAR

Protein RecA = target: T4, Protein RecA (Mycobacterium tuberculosis, UniProt P9WHJ3); experiment: Fluorescence Cell-Free Homogeneous Dose Retest to Identify Inhibitors of RecA-Intein Splicing Activity. [Related pubchem assays (depositor defined):AID2097, AID2223, AID489010, AID492950]; assay type: functional
T4 sequence (P9WHJ3 whole entry): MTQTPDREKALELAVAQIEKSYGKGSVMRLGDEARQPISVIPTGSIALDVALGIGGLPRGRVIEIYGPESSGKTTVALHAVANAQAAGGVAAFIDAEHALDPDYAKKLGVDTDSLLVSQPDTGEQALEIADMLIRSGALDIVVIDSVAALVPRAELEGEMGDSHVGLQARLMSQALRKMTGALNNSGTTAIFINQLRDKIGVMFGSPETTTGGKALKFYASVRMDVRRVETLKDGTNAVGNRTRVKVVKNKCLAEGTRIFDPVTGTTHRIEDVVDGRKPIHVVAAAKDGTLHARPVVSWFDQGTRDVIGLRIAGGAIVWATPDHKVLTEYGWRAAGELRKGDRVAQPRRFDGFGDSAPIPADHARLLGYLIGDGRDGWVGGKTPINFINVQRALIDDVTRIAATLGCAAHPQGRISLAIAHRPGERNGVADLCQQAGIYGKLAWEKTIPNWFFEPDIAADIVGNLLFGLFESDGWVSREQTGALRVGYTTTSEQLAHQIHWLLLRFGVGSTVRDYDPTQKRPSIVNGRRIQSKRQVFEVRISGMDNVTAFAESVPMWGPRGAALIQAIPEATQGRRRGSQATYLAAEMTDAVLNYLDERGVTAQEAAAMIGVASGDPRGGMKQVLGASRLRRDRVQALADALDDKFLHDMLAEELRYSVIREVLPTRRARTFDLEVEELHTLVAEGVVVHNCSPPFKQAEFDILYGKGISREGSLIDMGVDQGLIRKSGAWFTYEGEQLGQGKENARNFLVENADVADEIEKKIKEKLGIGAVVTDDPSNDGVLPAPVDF

With `CC1=NN(C(=O)c2csc(C)c2C)C(O)(C(F)(F)F)C1` (stereo not drawn) the IC50 (cells) was 42.3 µM (active).

In the case of `Cc1ccc(NC(=O)C2=C(O)c3sccc3N(C)S2(=O)=O)cc1`, the EC50 [1] is reported as 13.2 µM (active), the EC50 [2] is reported as 27.2 µM (active) and the EC50 (H4) is reported as > 120 µM (not active).

With `COc1ccc(OS(=O)(=O)Cc2ccccc2)cc1` the EC50 [1] was > 120 µM (not active), the EC50 [2] was 10.8 µM (active) and the EC50 (H4) was 57.5 µM (active).

With `CN(CCCNC(=O)c1cccc(N2CCCC2=O)c1)c1ccccc1` the AC50 [3] was 0.823 µM (active).

In the case of `CN(C)S(=O)(=O)c1cccc(NC(=O)CNCC2CCCCC2)c1`, the IC50 [4] is reported as 115 µM (active).

With `CC(C)c1ccc(Nc2nnc(SCC(=O)c3nnc(-c4ccccc4)o3)s2)cc1` the IC50 [5] was 2.72 µM (active).

With `Cc1ccc(Cn2cc(S(=O)(=O)c3ccc(Cl)cc3)c(=O)c3cc(F)ccc32)cc1` the EC50 [6] was > 260 µM (inactive).

In the case of `Cc1cc(-n2c(C)cc(C(=O)COc3ccccc3[N+](=O)[O-])c2C)no1`, the EC50 [1] is reported as 13.5 µM (active), the EC50 [2] is reported as 44.9 µM (active) and the EC50 (H4) is reported as > 120 µM (not active).

For `COc1ccc2cc(S(=O)(=O)N3CCCCC3)ccc2c1S(=O)(=O)N1CCCCC1`, the EC50 [6] was > 260 µM (inactive).

For `O=c1[nH]c(CCl)nc2cc(-c3ccc(F)cc3)sc12`, the EC50 [6] was 32.1 µM (active), the AC50 [7] was 11.7 µM (active) and the EC50 (Protein RecA) was 5.66 µM (active).

With `C=CCn1c(S)nnc1-c1ccccc1[N+](=O)[O-]` the AC50 [3] was 1.69 µM (active).

In the case of `CN(C)c1ccc(CN(C(=O)c2ccco2)C2CCS(=O)(=O)C2)cc1` (stereo not drawn), the AC50 [3] is reported as 4.16 µM (active).

With `CC(=O)c1ccc(OC(=O)c2ccc(-n3nc(C)cc3C)cc2)cc1` the IC50 (cells) was 7.6 µM (active).

With `COc1cc(-c2nc3ccccn3c2/N=C/c2cc(OC)c(O)cc2Cl)ccc1O` the IC50 [4] was 69.7 µM (active).

For `CCc1c(C)sc(NC(=O)c2ccc(Br)o2)c1C(=O)OC`, the EC50 [6] was > 260 µM (inactive).

— ChEMBL document CHEMBL1201862, “PubChem BioAssay data set” (2004)
